Experimental data taken from the NIST ThermoML archive (doi:10.1021/acs.jced.8b00153).
Numbers after ± are expanded uncertainties.

Experiment: refractive index (Na D-line) (dimensionless)
Settings: 100 kPa, Liquid, Standard Abbe refractometry

| Compound | refractive index (283.15 K) | refractive index (285.65 K) | refractive index (288.15 K) | refractive index (290.65 K) | refractive index (293.15 K) | refractive index (295.65 K) | refractive index (298.15 K) | refractive index (300.65 K) | refractive index (303.15 K) | refractive index (305.65 K) | refractive index (308.15 K) | refractive index (310.65 K) | refractive index (313.15 K) | refractive index (315.65 K) | refractive index (318.15 K) | refractive index (320.65 K) | refractive index (323.15 K) | refractive index (325.65 K) | refractive index (328.15 K) | refractive index (330.65 K) | also measured |
| --- | --- | --- | --- | --- | --- | --- | --- | --- | --- | --- | --- | --- | --- | --- | --- | --- | --- | --- | --- | --- | --- |
| CCc1ccco1 [2-ethylfuran] | 1.44533 ± 0.00033 | 1.4439 ± 0.00033 | 1.44245 ± 0.00033 | 1.44101 ± 0.00033 | 1.43956 ± 0.00033 | 1.43817 ± 0.00033 | 1.43672 ± 0.00033 | 1.43531 ± 0.00033 | 1.43387 ± 0.00033 | 1.43244 ± 0.00033 | 1.431 ± 0.00033 | 1.42958 ± 0.00033 | 1.42814 ± 0.00033 | 1.42671 ± 0.00033 | 1.42528 ± 0.00033 | 1.42385 ± 0.00033 | 1.42241 ± 0.00033 | 1.42097 ± 0.00033 | 1.41953 ± 0.00033 | 1.4181 ± 0.00033 | refractive index (333.15 K): 1.41669 ± 0.00033; refractive index (335.65 K): 1.41523 ± 0.00033; refractive index (338.15 K): 1.41379 ± 0.00033 |
| CCc1cccs1 [2-ethylthiophene] | 1.51841 ± 0.00037 | 1.51699 ± 0.00037 | 1.51557 ± 0.00037 | 1.51417 ± 0.00037 | 1.51272 ± 0.00037 | 1.51125 ± 0.00037 | 1.50981 ± 0.00037 | 1.50841 ± 0.00037 | 1.50698 ± 0.00037 | 1.50556 ± 0.00037 | 1.50413 ± 0.00037 | 1.50269 ± 0.00037 | 1.50125 ± 0.00037 | 1.49981 ± 0.00037 | 1.49836 ± 0.00037 | 1.49695 ± 0.00037 | 1.4955 ± 0.00037 | 1.49405 ± 0.00037 | 1.49261 ± 0.00037 | 1.49116 ± 0.00037 | refractive index (333.15 K): 1.48973 ± 0.00037; refractive index (335.65 K): 1.48827 ± 0.00037; refractive index (338.15 K): 1.48684 ± 0.00037 |
